Reference: patent publication US10112926B2 (priority 2014, dated 2018)
Structures can show the parent of a compound that is named as a salt.

Tests used:
mTOR = mTOR (Homo sapiens (Human), UniProt P42345); details: read-out: Assay G mTOR IC50
Vps34 = Vps34 (Homo sapiens (Human), UniProt Q8NEB9); details: read-out: Assay C VPS34 IC50
PI 4-kinase beta = PI 4-kinase beta (Homo sapiens (Human), UniProt Q9UBF8); details: read-out: Assay D PI4Kβ IC50
PI 4-kinase beta, sequence (Q9UBF8 whole entry): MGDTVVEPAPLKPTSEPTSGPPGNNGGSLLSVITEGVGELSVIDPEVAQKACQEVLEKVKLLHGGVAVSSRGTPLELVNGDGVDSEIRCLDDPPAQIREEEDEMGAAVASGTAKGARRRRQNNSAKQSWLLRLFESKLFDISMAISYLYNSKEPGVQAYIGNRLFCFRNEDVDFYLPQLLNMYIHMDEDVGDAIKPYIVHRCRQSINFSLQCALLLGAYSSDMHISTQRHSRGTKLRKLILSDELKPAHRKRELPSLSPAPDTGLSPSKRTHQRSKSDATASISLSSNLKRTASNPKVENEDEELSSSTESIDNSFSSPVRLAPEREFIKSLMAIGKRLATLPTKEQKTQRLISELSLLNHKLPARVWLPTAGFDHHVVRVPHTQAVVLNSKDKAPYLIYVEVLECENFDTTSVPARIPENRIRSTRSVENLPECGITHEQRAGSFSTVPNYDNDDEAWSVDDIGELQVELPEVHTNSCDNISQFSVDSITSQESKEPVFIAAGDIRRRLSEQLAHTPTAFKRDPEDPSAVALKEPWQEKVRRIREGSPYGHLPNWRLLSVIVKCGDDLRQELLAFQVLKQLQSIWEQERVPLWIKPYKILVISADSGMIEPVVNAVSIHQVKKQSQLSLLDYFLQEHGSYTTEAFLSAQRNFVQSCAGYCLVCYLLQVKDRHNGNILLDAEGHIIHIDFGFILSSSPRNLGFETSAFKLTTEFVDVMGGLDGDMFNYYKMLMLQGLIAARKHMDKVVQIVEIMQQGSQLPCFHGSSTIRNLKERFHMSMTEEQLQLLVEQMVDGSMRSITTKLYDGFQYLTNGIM

Vps34, sequence (Q8NEB9 whole entry): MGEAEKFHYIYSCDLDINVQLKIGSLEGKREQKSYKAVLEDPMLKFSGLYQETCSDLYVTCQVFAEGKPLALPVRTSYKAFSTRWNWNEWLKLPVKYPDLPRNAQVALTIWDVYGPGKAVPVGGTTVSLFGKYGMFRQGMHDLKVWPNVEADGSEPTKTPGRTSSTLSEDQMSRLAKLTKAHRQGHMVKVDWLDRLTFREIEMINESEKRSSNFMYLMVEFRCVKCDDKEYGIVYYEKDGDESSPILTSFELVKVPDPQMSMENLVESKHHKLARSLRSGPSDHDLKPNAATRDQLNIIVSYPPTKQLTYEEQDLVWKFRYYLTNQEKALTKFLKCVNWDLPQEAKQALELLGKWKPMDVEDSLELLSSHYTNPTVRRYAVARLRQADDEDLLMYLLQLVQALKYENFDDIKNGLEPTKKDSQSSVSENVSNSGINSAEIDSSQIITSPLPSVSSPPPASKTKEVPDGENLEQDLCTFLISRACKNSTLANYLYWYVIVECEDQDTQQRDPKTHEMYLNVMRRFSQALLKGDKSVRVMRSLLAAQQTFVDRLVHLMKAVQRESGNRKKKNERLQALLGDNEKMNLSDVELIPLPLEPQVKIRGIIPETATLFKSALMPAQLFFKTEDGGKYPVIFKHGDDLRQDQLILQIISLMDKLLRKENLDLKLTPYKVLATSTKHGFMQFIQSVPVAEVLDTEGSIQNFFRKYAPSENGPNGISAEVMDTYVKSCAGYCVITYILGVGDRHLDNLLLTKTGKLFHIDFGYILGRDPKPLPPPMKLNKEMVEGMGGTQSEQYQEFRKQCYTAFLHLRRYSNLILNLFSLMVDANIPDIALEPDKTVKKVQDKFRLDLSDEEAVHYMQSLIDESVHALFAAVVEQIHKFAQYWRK

| Structure (SMILES) | IC50 (mTOR) | IC50 (Vps34) | IC50 (PI 4-kinase beta) |
| --- | --- | --- | --- |
| Cc1noc(-c2cc(-c3cc(S(=O)(=O)NC4CC(O)C4)ccc3C)cnc2N)n1 (mixture of isomers) [Example 5.5, Diastereomers of 3-(6-Amino-5-(3-methyl-1,2,4-oxadiazol-5-yl)pyridin-3-yl)-N-(3-hydroxycyclobutyl)-4-methylbenzene sulfonamide hydrochloride] | > 10 µM | > 10 µM | – |
| Cc1ncc(-c2cc(-c3cc(S(=O)(=O)NCCC(C)(C)O)ccc3C)cnc2N)s1 [Example 4, 3-(6-Amino-5-(2-methylthiazol-5-yl)pyridin-3-yl)-N-(3-hydroxy-3-methylbutyl)-4-methylbenzenesulfonamide] | 2.63 µM | – | 1.44 µM |
| CCc1noc(-c2cc(-c3cc(S(=O)(=O)NCC(C)(C)O)ccc3C)cnc2N)n1 [Example 5.3, 3-(6-Amino-5-(3-ethyl-1,2,4-oxadiazol-5-yl)pyridin-3-yl)-N-(2-hydroxy-2-methylpropyl)-4-methylbenzenesulfon-amide hydrochloride] | > 10 µM | > 10 µM | – |
| Cc1noc(-c2cc(-c3cc(S(=O)(=O)N[C@H]4C[C@@H](O)C4)ccc3C)cnc2N)n1 [Example 5.5a, 3-(6-Amino-5-(3-methyl-1,2,4-oxadiazol-5-yl)pyridin-3-yl)-N-((1s,3s)-3-hydroxycyclobutyl)-4-methylbenzenesulfonamide] | > 10 µM | > 10 µM | – |
| Cc1ncc(-c2cc(-c3cc(S(=O)(=O)NCC(C)(C)O)ccc3C)cnc2N)s1 [Example 15, 3-[6-Amino-5-(2-methyl-thiazol-5-yl)-pyridin-3-yl]-N-(2-hydroxy-2-methyl-propyl)-4-methyl-benzenesulfonamide] | 7.9 µM | 1.62 µM | – |
| Cc1cc(-c2cc(-c3cc(S(=O)(=O)NCCC(C)(C)O)ccc3C)cnc2N)ccn1 [Example 16, 3-(2-Amino-2′-methyl-[3,4′]bipyridinyl-5-yl)-N-(3-hydroxy-3-methyl-butyl)-4-methyl-benzenesulfonamide] | > 9.1 µM | > 9.1 µM | – |
| Cc1cc(-c2cc(-c3cc(S(=O)(=O)NCC4(C)COC4)ccc3C)cnc2N)on1 [Example 17, 3-[6-Amino-5-(3-methyl-isoxazol-5-yl)-pyridin-3-yl]-4-methyl-N-(3-methyl-oxetan-3-ylmethyl)-benzenesulfonamide hydrochloride] | 8.5 µM | 8.1 µM | – |
| COC1(C)CN(S(=O)(=O)c2ccc(C)c(-c3cnc(N)c(-c4nc(C)no4)c3)c2)C1 [Example 37.2, 5-(5-((3-Methoxy-3-methylazetidin-1-yl)sulfonyl)-2-methylphenyl)-3-(3-methyl-1,2,4-oxadiazol-5-yl)pyridin-2-amine] | > 10 µM | – | > 10 µM |
| Cc1cc(-c2cc(-c3cc(S(=O)(=O)NCC4(CO)CCCCC4)ccc3C)cnc2N)on1 [Example 37.3, 3-(6-Amino-5-(3-methylisoxazol-5-yl)pyridin-3-yl)-N-((1-(hydroxymethyl)cyclohexyl)methyl)-4-methylbenzenesulfonamide] | 3 µM | > 10 µM | – |
| Cc1noc(-c2cc(-c3cc(S(=O)(=O)NCC4CCCO4)ccc3C)cnc2N)n1 (stereo not drawn) [Example 57, 3-(6-Amino-5-(3-methyl-1,2,4-oxadiazol-5-yl)pyridin-3-yl)-4-methyl-N-((tetrahydrofuran-2-yl)methyl)benzenesulfonamide] | 2.4 µM | – | > 10 µM |
| Cc1ccc(S(=O)(=O)NCC(C)(C)O)cc1-c1cnc(N)c(-c2cnoc2C)c1 [Example 62, 3-(6-Amino-5-(5-methylisoxazol-4-yl)pyridin-3-yl)-N-(2-hydroxy-2-methylpropyl)-4-methylbenzenesulfonamide] | > 10 µM | – | 6.6 µM |
| Cc1ccc(S(=O)(=O)NCC(C)(C)O)cc1-c1cnc(N)c(-c2nc(C(F)F)no2)c1 [Example 71, 3-(6-Amino-5-(3-(difluoromethyl)-1,2,4-oxadiazol-5-yl)pyridin-3-yl)-N-(2-hydroxy-2-methylpropyl)-4-methylbenzenesulfonamide hydrochloride] | > 10 µM | – | 10 µM |
| Cc1cc(-c2cc(-c3cc(S(=O)(=O)NCCO)ccc3C)cnc2N)on1 [Example 73, 3-(6-Amino-5-(3-methylisoxazol-5-yl)pyridin-3-yl)-N-(2-hydroxyethyl)-4-methylbenzenesulfonamide] | > 10 µM | > 10 µM | – |
| Cc1ccc(S(=O)(=O)NCCC(C)(C)O)cc1-c1cnc(N)c(-c2nc(CC(F)(F)F)no2)c1 [Example 79, 3-(6-Amino-5-(3-(2,2,2-trifluoroethyl)-1,2,4-oxadiazol-5-yl)pyridin-3-yl)-N-(3-hydroxy-3-methylbutyl)-4-methylbenzenesulfonamide] | – | > 10 µM | 2.8 µM |
| Cc1ccc(S(=O)(=O)NCC(C)(C)O)cc1-c1cnc(N)c(-n2cncn2)c1 [Example 81, 3-(6-Amino-5-(1H-1,2,4-triazol-1-yl)pyridin-3-yl)-N-(2-hydroxy-2-methylpropyl)-4-methylbenzenesulfonamide hydrochloride] | – | > 9.8 µM | > 9.78 µM |
| Cc1cc(-c2cc(-c3cc(S(=O)(=O)NC[C@H]4C[C@@H](O)C4)ccc3C)cnc2N)on1 [Example 84, cis-3-(6-Amino-5-(3-methylisoxazol-5-yl)pyridin-3-yl)-N-(((1s,3s)-3-hydroxycyclobutyl)methyl)-4-methylbenzenesulfonamide] | – | > 10 µM | 2.65 µM |
| Cc1noc(-c2cc(-c3cc(S(=O)(=O)NCC(C)(C)O)c(F)cc3C)cnc2N)n1 [Example 85, 5-(6-Amino-5-(3-methyl-1,2,4-oxadiazol-5-yl)pyridin-3-yl)-2-fluoro-N-(2-hydroxy-2-methylpropyl)-4-methylbenzenesulfonamide] | – | > 10 µM | > 10 µM |
| Cc1noc(-c2cc(-c3cc(S(=O)(=O)NC[C@@H]4CCOC4)ccc3C)cnc2N)n1 [Example 87, (S)-3-(6-Amino-5-(3-methyl-1,2,4-oxadiazol-5-yl)pyridin-3-yl)-4-methyl-N-((tetrahydrofuran-3-yl)methyl)benzenesulfonamide] | – | > 10 µM | 6.1 µM |
| Cc1cnc(-c2cc(-c3cc(S(=O)(=O)NCCC(C)(C)O)ccc3C)cnc2N)s1 [Example 91, 3-(6-Amino-5-(5-methylthiazol-2-yl)pyridin-3-yl)-N-(3-hydroxy-3-methylbutyl)-4-methylbenzenesulfonamide] | – | > 10 µM | 0.79 µM |
| Cc1nc(-c2cc(-c3cc(S(=O)(=O)N[C@H]4CC[C@H](O)CC4)ccc3C)cnc2N)cs1 [Example 92, 3-(6-Amino-5-(2-methylthiazol-4-yl)pyridin-3-yl)-N-((1r,4r)-4-hydroxycyclohexyl)-4-methylbenzenesulfonamide] | – | > 10 µM | 5.1 µM |
| Cc1nc(-c2cc(-c3cc(S(=O)(=O)NCCC(C)(C)O)ccc3C)cnc2N)cs1 [Example 93, 3-(6-Amino-5-(2-methylthiazol-4-yl)pyridin-3-yl)-N-(3-hydroxy-3-methylbutyl)-4-methylbenzenesulfonamide] | – | > 10 µM | 7.5 µM |
| Cc1ccc(S(=O)(=O)NCC(C)(C)O)cc1-c1cnc(N)c(-c2ncco2)c1 [Example 94b, 3-(6-amino-5-(oxazol-2-yl)pyridin-3-yl)-N-(2-hydroxy-2-methylpropyl)-4-methylbenzenesulfonamide] | – | > 10 µM | 1.3 µM |
| Cc1nnc(-c2cc(-c3cc(S(=O)(=O)NCC(C)(C)O)ccc3C)cnc2N)s1 [Example 102, 3-(6-amino-5-(5-methyl-1,3,4-thiadiazol-2-yl)pyridin-3-yl)-N-(2-hydroxy-2-methylpropyl)-4-methylbenzenesulfonamide] | – | > 10 µM | 8.6 µM |
| Cc1ncc(-c2cc(-c3cc(S(=O)(=O)NCC4COC4)ccc3C)cnc2N)o1 [Example 104.3, 3-(6-amino-5-(2-methyloxazol-5-yl)pyridin-3-yl)-4-methyl-N-(oxetan-3-ylmethyl)benzenesulfon-amide] | – | 4.7 µM | 4.6 µM |
| Cc1ncc(-c2cc(-c3cc(S(=O)(=O)NCC4(O)COC4)ccc3C)cnc2N)o1 [Example 104.7, 3-(6-amino-5-(2-methyloxazol-5-yl)pyridin-3-yl)-N-((3-hydroxyoxetan-3-yl)methyl)-4-methylbenzenesulfon-amide] | – | 3.2 µM | 1.8 µM |
| Cc1ncc(-c2cc(-c3cc(S(=O)(=O)N[C@H]4CC[C@H](CO)CC4)ccc3C)cnc2N)o1 [Example 104.11, 3-(6-amino-5-(2-methyloxazol-5-yl)pyridin-3-yl)-N-((1r,4r)-4-(hydroxymethyl)cyclo-hexyl)-4-methylbenzenesulfon-amide] | – | 0.3 µM | 0.5 µM |
| Cc1ncc(-c2cc(-c3cc(S(=O)(=O)NCC4(CO)CCOCC4)ccc3C)cnc2N)o1 [Example 104.13, 3-(6-amino-5-(2-methyloxazol-5-yl)pyridin-3-yl)-N-((4-(hydroxymethyl)tetra-hydro-2H-pyran-4-yl)methyl)-4-methylbenzenesulfon-amide] | – | > 10 µM | 3.4 µM |
| Cc1nnc(-c2cc(-c3cc(S(=O)(=O)NCCC(C)(C)O)ccc3C)cnc2N)s1 [Example 105, 3-(6-amino-5-(5-methyl-1,3,4-thiadiazol-2-yl)pyridin-3-yl)-N-(3-hydroxy-3-methylbutyl)-4-methylbenzenesulfonamide] | – | > 10 µM | 2.9 µM |
| Cc1ncc(-c2cc(-c3cc(S(=O)(=O)NOCC(C)(C)O)ccc3C)cnc2N)o1 [Example 107, 3-(6-amino-5-(2-methyloxazol-5-yl)pyridin-3-yl)-N-(2-hydroxy-2-methylpropoxy)-4-methylbenzenesulfonamide hydrochloride] | – | > 10 µM | 0.66 µM |
| Cc1ccc(S(=O)(=O)NCC(C)(C)O)cc1-c1cnc(N)c(-c2ccn(C)n2)c1 [Example 110, 3-(6-amino-5-(1-methyl-1H-pyrazol-3-yl)pyridin-3-yl)-N-(2-hydroxy-2-methylpropyl)-4-methylbenzenesulfonamide] | – | > 10 µM | > 10 µM |
